This is an account of results in patent EP4122466A1 (priority 2021, dated 2023).

Series [1] deals with VSV.G virus. Type of series: cell-based.
Series [2] concerns VSV*ΔG(Luc)-S virus. As to the kind of experiment: organism not typed. Type of series: cell-based.
Series [3] relates to SARS-CoV-2 pseudovirus. Type of series: cell-based.
Series [4] has as its system Human Lung Tissue (HTL) cells.
The subject of series [5] is SARS-CoV-2. Particulars: cited from earlier work.

“Also recorded” adds a separate entry of the source. Bounds are passed on as bounds.

On to `Cc1cccc(/C=N/Nc2cc(N3CCOCC3)nc(OCCc3ccccn3)n2)c1` [apilimod], for which, in series [1], the “inhibition of the VSV.G virus” value was “partially inhibit”. In addition, in series [2], the “decrease in infection rate” value is listed as “lower decrease in infection rate” and the infection rate is given as 50%. The “inhibition of virus infection” value in series [3] is reported as “dose-dependent inhibition of virus infection”.

As for `CN1CCN(c2ccc(C(=O)Nc3n[nH]c4ccc(Cc5cc(F)cc(F)c5)cc34)c(NC3CCOCC3)c2)CC1` [entrectinib], in series [4], the cell death result was “without inducing significant cell death”. In series [1], the “inhibition of the VSV.G virus” value was “partially inhibit; also recorded: demonstrated an antiviral effect”. Moreover, the EC50 in series [2] is less than 1 µM. Further, the “inhibition of virus infection” value in series [3] was “dose-dependent inhibition of virus infection”.

As for `Cc1ccc(NC(=O)c2ccc(CN3CCN(C)CC3)cc2)cc1Nc1nccc(-c2cccnc2)n1` [imatinib], the “in vitro activity against SARS-CoV-2” value in series [5] was “do not show antiviral efficacy”.

For `Cc1cn(-c2cc(NC(=O)c3ccc(C)c(Nc4nccc(-c5cccnc5)n4)c3)cc(C(F)(F)F)c2)cn1` [nilotinib], in series [1], the “inhibition of the VSV.G virus” value is on record as “partially inhibit”. Further, the “in vitro activity against SARS-CoV-2” value in series [5] is on record as “did show in vitro antiviral effect”. The compound also had an EC50 in series [2] of more than 15 µM. Further, in series [3], the “inhibition of virus infection” value is listed as “dose-dependent inhibition of virus infection”.
